ChEMBL document CHEMBL4052765, “Synthesis and antibacterial evaluation of novel 11-O-carbamoyl clarithromycin ketolides” (2017)
In brackets after ≈: the same amount, converted by molar mass.

Tests used:
Format in all cases: functional
[1] = test system: Staphylococcus aureus; test: Antibacterial activity against […] Staphylococcus aureus ATCC 29213 after 24 h by NCCLS broth microdilution method; conditions: ATCC 29213, 24 h
[2] = test system: Escherichia coli; test: Antibacterial activity against penicillin-susceptible Escherichia coli ATCC 25922 after 24 h by NCCLS broth microdilution method; conditions: ATCC 25922, 24 h
[3] = test system: Streptococcus pyogenes; test: Antibacterial activity against erythromycin-resistant Streptococcus pyogenes R1 after 24 h by NCCLS broth microdilution method; conditions: R1, 24 h
[4] = test system: Streptococcus pyogenes; test: Antibacterial activity against erythromycin-susceptible Streptococcus pyogenes after 24 h by NCCLS broth microdilution method
[5] = test system: Pseudomonas aeruginosa; test: Antibacterial activity against penicillin-susceptible Pseudomonas aeruginosa ATCC 27853 after 24 h by NCCLS broth microdilution method; conditions: ATCC 27853, 24 h
[6] = test system: Streptococcus pneumoniae; test: Antibacterial activity against erythromycin-resistant Streptococcus pneumoniae B1 harboring erm gene after 24 h by NCCLS broth microdilution method; conditions: B1, 24 h
[7] = test system: Streptococcus pneumoniae; test: Antibacterial activity against erythromycin-resistant Streptococcus pneumoniae AB11 harboring harboring mef and erm gene after 24 h by NCCLS broth microdilution method; conditions: AB11, 24 h
[8] = test system: Streptococcus pneumoniae; test: Antibacterial activity against erythromycin-resistant Streptococcus pneumoniae A22072 harboring mef gene after 24 h by NCCLS broth microdilution method; conditions: A22072, 24 h
[9] = test system: Bacillus subtilis; test: Antibacterial activity against penicillin-susceptible Bacillus subtilis ATCC 9372 after 24 h by NCCLS broth microdilution method; conditions: ATCC 9372, 24 h
[10] = test system: Staphylococcus aureus; test: Antibacterial activity against erythromycin-susceptible Staphylococcus aureus ATCC 25923 after 24 h by NCCLS broth microdilution method; conditions: ATCC 25923, 24 h

Row | Compound | MIC [1] [mg/L] | MIC [2] [mg/L] | MIC [3] [mg/L] | MIC [4] [mg/L] | MIC [5] [mg/L] | MIC [6] [mg/L] | MIC [7] [mg/L] | MIC [8] [mg/L] | MIC [9] [mg/L] | MIC [10] [mg/L]
1 | CC[C@H]1OC(=O)[C@H](C)C(=O)[C@H](C)[C@@H](O[C@@H]2O[C@H](C)C[C@H](N(C)C)[C@H]2O)[C@](C)(OC)C[C@@H](C)C(=O)[C@H](C)[C@@H](OC(=O)NCCNC(=O)/C=C/c2ccc(F)cc2)[C@]1(C)O | 128 (≈ 156 µM) | > 128 | > 128 | 2 (≈ 2.43 µM) | > 128 | 128 (≈ 156 µM) | 64 (≈ 77.9 µM) | 4 (≈ 4.87 µM) | 8 (≈ 9.73 µM) | 32 (≈ 38.9 µM)
2 | CC[C@H]1OC(=O)[C@H](C)C(=O)[C@H](C)[C@@H](O[C@@H]2O[C@H](C)C[C@H](N(C)C)[C@H]2O)[C@](C)(OC)C[C@@H](C)C(=O)[C@H](C)[C@@H](OC(=O)NCCNC(=O)/C=C/c2ccc(Br)cc2)[C@]1(C)O | 64 (≈ 72.5 µM) | > 128 | > 128 | 2 (≈ 2.27 µM) | > 128 | 128 (≈ 145 µM) | 128 (≈ 145 µM) | 2 (≈ 2.27 µM) | 4 (≈ 4.53 µM) | 32 (≈ 36.2 µM)
3 | CC[C@H]1OC(=O)[C@H](C)C(=O)[C@H](C)[C@@H](O[C@@H]2O[C@H](C)C[C@H](N(C)C)[C@H]2O)[C@](C)(OC)C[C@@H](C)C(=O)[C@H](C)[C@@H](OC(=O)NCCNC(=O)c2ccc(C(C)(C)C)cc2)[C@]1(C)O | 128 (≈ 153 µM) | > 128 | 128 (≈ 153 µM) | 16 (≈ 19.2 µM) | > 128 | 128 (≈ 153 µM) | 128 (≈ 153 µM) | 4 (≈ 4.8 µM) | 4 (≈ 4.8 µM) | 128 (≈ 153 µM)
4 | CC[C@H]1OC(=O)[C@H](C)C(=O)[C@H](C)[C@@H](O[C@@H]2O[C@H](C)C[C@H](N(C)C)[C@H]2O)[C@](C)(OC)C[C@@H](C)C(=O)[C@H](C)[C@@H](OC(=O)NCCNC(=O)/C=C/c2ccc([N+](=O)[O-])cc2)[C@]1(C)O | 128 (≈ 151 µM) | > 128 | > 128 | 1 (≈ 1.18 µM) | 128 (≈ 151 µM) | 128 (≈ 151 µM) | 128 (≈ 151 µM) | 1 (≈ 1.18 µM) | 4 (≈ 4.71 µM) | 32 (≈ 37.7 µM)
5 | CC[C@H]1OC(=O)[C@H](C)C(=O)[C@H](C)[C@@H](O[C@@H]2O[C@H](C)C[C@H](N(C)C)[C@H]2O)[C@](C)(OC)C[C@@H](C)C(=O)[C@H](C)[C@@H](OC(=O)NCCNC(=O)/C=C/c2ccccc2)[C@]1(C)O | 128 (≈ 159 µM) | > 128 | > 128 | 4 (≈ 4.98 µM) | > 128 | 128 (≈ 159 µM) | 64 (≈ 79.6 µM) | 4 (≈ 4.98 µM) | 8 (≈ 9.95 µM) | 32 (≈ 39.8 µM)
6 | CC[C@H]1OC(=O)[C@H](C)C(=O)[C@H](C)[C@@H](O[C@@H]2O[C@H](C)C[C@H](N(C)C)[C@H]2O)[C@](C)(OC)C[C@@H](C)C(=O)[C@H](C)[C@@H](OC(=O)NCCNC(=O)c2ccc(OC)cc2)[C@]1(C)O | 128 (≈ 158 µM) | > 128 | > 128 | 2 (≈ 2.48 µM) | > 128 | 128 (≈ 158 µM) | 64 (≈ 79.2 µM) | 1 (≈ 1.24 µM) | 4 (≈ 4.95 µM) | 32 (≈ 39.6 µM)
7 | CC[C@H]1OC(=O)[C@H](C)C(=O)[C@H](C)[C@@H](O[C@@H]2O[C@H](C)C[C@H](N(C)C)[C@H]2O)[C@](C)(OC)C[C@@H](C)C(=O)[C@H](C)[C@@H](OC(=O)NCCNC(=O)c2cccc(C)c2)[C@]1(C)O | 128 (≈ 162 µM) | > 128 | > 128 | 4 (≈ 5.05 µM) | > 128 | 128 (≈ 162 µM) | 64 (≈ 80.8 µM) | 8 (≈ 10.1 µM) | 8 (≈ 10.1 µM) | 32 (≈ 40.4 µM)
8 | CC[C@H]1OC(=O)[C@H](C)C(=O)[C@H](C)[C@@H](O[C@@H]2O[C@H](C)C[C@H](N(C)C)[C@H]2O)[C@](C)(OC)C[C@@H](C)C(=O)[C@H](C)[C@@H](OC(=O)NCCNC(=O)c2ccc(Br)cc2)[C@]1(C)O | 128 (≈ 149 µM) | > 128 | > 128 | 2 (≈ 2.33 µM) | 128 (≈ 149 µM) | 128 (≈ 149 µM) | 64 (≈ 74.7 µM) | 1 (≈ 1.17 µM) | 1 (≈ 1.17 µM) | 8 (≈ 9.34 µM)
9 | CC[C@H]1OC(=O)[C@H](C)C(=O)[C@H](C)[C@@H](O[C@@H]2O[C@H](C)C[C@H](N(C)C)[C@H]2O)[C@](C)(OC)C[C@@H](C)C(=O)[C@H](C)[C@@H](OC(=O)NCCNC(=O)/C=C/c2ccc(C)cc2)[C@]1(C)O | 64 (≈ 78.2 µM) | > 128 | > 128 | 4 (≈ 4.89 µM) | > 128 | 128 (≈ 156 µM) | 64 (≈ 78.2 µM) | 4 (≈ 4.89 µM) | 8 (≈ 9.78 µM) | 64 (≈ 78.2 µM)
10 | CC[C@H]1OC(=O)[C@H](C)C(=O)[C@H](C)[C@@H](O[C@@H]2O[C@H](C)C[C@H](N(C)C)[C@H]2O)[C@](C)(OC)C[C@@H](C)C(=O)[C@H](C)[C@@H](OC(=O)NCCNC(=O)c2ccc(C)cc2)[C@]1(C)O | 128 (≈ 162 µM) | > 128 | > 128 | 4 (≈ 5.05 µM) | > 128 | 128 (≈ 162 µM) | 64 (≈ 80.8 µM) | 2 (≈ 2.53 µM) | 2 (≈ 2.53 µM) | 32 (≈ 40.4 µM)
11 | CC[C@H]1OC(=O)[C@H](C)C(=O)[C@H](C)[C@@H](O[C@@H]2O[C@H](C)C[C@H](N(C)C)[C@H]2O)[C@](C)(OC)C[C@@H](C)C(=O)[C@H](C)[C@@H](OC(=O)NCCNC(=O)c2ccccc2)[C@]1(C)O | 128 (≈ 165 µM) | > 128 | > 128 | 4 (≈ 5.14 µM) | > 128 | 128 (≈ 165 µM) | 128 (≈ 165 µM) | 4 (≈ 5.14 µM) | 4 (≈ 5.14 µM) | 64 (≈ 82.3 µM)
12 | CC[C@H]1OC(=O)[C@H](C)C(=O)[C@H](C)[C@@H](O[C@@H]2O[C@H](C)C[C@H](N(C)C)[C@H]2O)[C@](C)(OC)C[C@@H](C)C(=O)[C@H](C)[C@@H](OC(=O)NCCNC(=O)c2ccc(F)cc2)[C@]1(C)O | 128 (≈ 161 µM) | > 128 | > 128 | 2 (≈ 2.51 µM) | 128 (≈ 161 µM) | 128 (≈ 161 µM) | 64 (≈ 80.4 µM) | 2 (≈ 2.51 µM) | 1 (≈ 1.26 µM) | 32 (≈ 40.2 µM)
13 | CC[C@H]1OC(=O)[C@H](C)C(=O)[C@H](C)[C@@H](O[C@@H]2O[C@H](C)C[C@H](N(C)C)[C@H]2O)[C@](C)(OC)C[C@@H](C)C(=O)[C@H](C)[C@@H](OC(=O)NCCNC(=O)c2ccc([N+](=O)[O-])cc2)[C@]1(C)O | 128 (≈ 156 µM) | > 128 | > 128 | 0.25 (≈ 0.304 µM) | 128 (≈ 156 µM) | 128 (≈ 156 µM) | 64 (≈ 77.8 µM) | 1 (≈ 1.22 µM) | 1 (≈ 1.22 µM) | 16 (≈ 19.4 µM)
14 | CC[C@H]1OC(=O)[C@H](C)C(=O)[C@H](C)[C@@H](O[C@@H]2O[C@H](C)C[C@H](N(C)C)[C@H]2O)[C@](C)(OC)C[C@@H](C)C(=O)[C@H](C)[C@@H](OC(=O)NCCNC(=O)c2ccccc2O)[C@]1(C)O | 128 (≈ 161 µM) | > 128 | > 128 | 4 (≈ 5.04 µM) | 128 (≈ 161 µM) | 128 (≈ 161 µM) | 64 (≈ 80.6 µM) | 4 (≈ 5.04 µM) | 8 (≈ 10.1 µM) | 32 (≈ 40.3 µM)
15 | CC[C@H]1OC(=O)[C@H](C)C(=O)[C@H](C)[C@@H](O[C@@H]2O[C@H](C)C[C@H](N(C)C)[C@H]2O)[C@](C)(OC)C[C@@H](C)C(=O)[C@H](C)[C@@H](OC(=O)NCCNC(=O)c2cccc(O)c2)[C@]1(C)O | 128 (≈ 161 µM) | > 128 | > 128 | 2 (≈ 2.52 µM) | > 128 | 128 (≈ 161 µM) | 64 (≈ 80.6 µM) | 16 (≈ 20.2 µM) | 16 (≈ 20.2 µM) | 128 (≈ 161 µM)
